Experimental data taken from US9770478B2, “Method for inhibiting neuronal cell aggregation” (NATIONAL TAIWAN NORMAL UNIVERSITY, priority 2014, dated 2017).
pEC50: −log10 of the molar value.

Key:
[1] = system: 293 ATXN3/Q75-GFP cells; test: ATXN3/Q75 aggregation assay, high-content analysis; format: cell-based, human
Procedure: Glycyrrhizin is metabolized to 18β-glycyrrhetinic acid by intestinal bacteria. Therefore, ATXN3/Q75 aggregation assay was further performed with different concentrations of the 18β-glycyrrhetinic acid (0.1˜10 μM) and SAHA (0.1 μM) by the aforementioned method, aggregation percentage was assessed by HCA system.

[2] = system: HEK-293 cells; test: IC50 cytotoxicity (MTT cell proliferation) / effective dose ratio
Procedure: H.; Kung, P. J.; Lin, T. H.; Wu, Y. C.; Wu, Y. R.; Chen, Y. C.; Lee-Chen, G. J.; Chen, C. […] Cell proliferation was measured based upon the reduction of 3-(4,5-dimethylthiazol-2-yl]-2,5-diphenyltetrazolium bromide (MTT). Briefly, 5×10^4 cells were plated into 48-well dishes, grown for 20 hr and treated with herbal extract (5˜30 mg/mL G. inflata or C. longa) or pure compound (100 nM˜1 mM AMGZ or licochalcone A). After one day, 20 μL MTT (5 mg/mL in PBS, Sigma) was added to cells and incubated for 2 hr. The absorbance of the insoluble purple formazan product was measured at 570 nm by a Bio-Tek μQuant Universal Microplate Spectrophotometer.
Then doxycycline (10 μg/mL, BD) and oxaliplatin (5 μM, Sigma) were added for 6 days.

[3] = DPPH free radical scavenging assay; format: biochemical; settings: 100 μM DPPH; for pEC50: 30 min, room temperature
Procedure: The free radical scavenging activities of tested compounds and herbal extracts were determined using the stable 1,1-diphenyl-2-picrylhydrazyl (DPPH, Sigma) free radical assay (see Li, N.; Liu, J. H.; Zhang, J.; Yu, B. Y. Comparative evaluation of cytotoxicity and antioxidative activity of 20 flavonoids. Journal of Agricultural and Food Chemistry 56:3876-3883; 2008) with some modifications. Briefly, radical scavenging activity was measured in an ethanol mixture containing 100 μM DPPH radical solution and tested compounds (10˜200 μM) or herbal extracts (0.2˜4 mg/mL) The mixture was vortexed for 15 sec and then left to stand at room temperature for 30 min. Then, the scavenging capacity was measured by monitoring the decrease in absorbance at 517 nm by a Thermo Scientific Multiskan GO Microplate Spectrophotometer. The radical scavenging activity was calculated using the formula: 1−(absorbance of sample/absorbance of control)×100%. The antioxidative activity expressed as EC50 was defined as the concentration of the compounds required for inhibition of the formation of DPPH radicals by 50%.

[4] = system: SH-SY5Y ATXN3/Q75-GFP cells; test: ATXN3/Q75 aggregation assay in retinoic acid differentiated neuronal cells; format: cell-based, human; settings: one week
Procedure: SH-SY5Y ATXN3/Q75-GFP cells were seeded in 6-well (2×10^5/well) plate, with all trans retinoic acid (10 μM, Sigma) added at seeding time. At day 2, cells were treated with G. inflata or C. longa extract (10 μg/mL), AMGZ (0.2 μM) or licochalcone A (2 nM) for 8 hr, and then doxycycline (5 μg/mL) was added to induce ATXN3/Q75-GFP expression. After one week, cells were stained with Hoechst 33342 and aggregation percentage was assessed as described. The morphologic differentiation of untreated cells including total outgrowth, processes, and branches was assessed by using HCA system.

## CC1(C)[C@@H](O)CC[C@]2(C)[C@H]3C(=O)C=C4[C@@H]5C[C@@](C)(C(=O)O)CC[C@]5(C)CC[C@@]4(C)[C@]3(C)CC[C@@H]12 [18β-glycyrrhetinic acid]
[1]; 10 μM
  ATXN3/Q75 aggregation as compared to untreated cells: 81%

## CC1(C)[C@@H](O[C@H]2O[C@H](C(=O)O)[C@@H](O)[C@H](O)[C@H]2O[C@@H]2O[C@H](C(=O)O)[C@@H](O)[C@H](O)[C@H]2O)CC[C@]2(C)[C@H]3C(=O)C=C4[C@@H]5C[C@@](C)(C(=O)O)CC[C@]5(C)CC[C@@]4(C)[C@]3(C)CC[C@@H]12 [AMGZ, ammonium glycyrrhizinate]
[2]; effective = reduced the ATXN3/Q75 aggregation to 85% or lower
  IC50 cytotoxicity/effective dose ratio: > 10000
[3]; tested compounds 10˜200 μM
  DPPH scavenging activity: no detectable DPPH scavenging activity
[4]; 0.2 μM
  aggregation reduction in ATXN3/Q75 expressed neuronal cells: 9%

## O=c1c(O)c(-c2ccc(O)cc2)oc2cc(O)cc(O)c12 [Kaempferol, reference compound]
[3]
  pEC50: 4.57

## O=C(CCCCCCC(=O)Nc1ccccc1)NO [SAHA, suberoylanilide hydroxamic acid, reference compound]
[1]; 100 nM, 8 hr pretreatment, then doxycycline and oxaliplatin 6 days
  ATXN3/Q75 aggregation as compared to untreated cells: 85%

## C=CC(C)(C)c1cc(/C=C/C(=O)c2ccc(O)cc2)c(OC)cc1O [licochalcone A]
[2]; human, 1 day
  IC50 cytotoxicity/effective dose ratio: 3×10^5
[3]
  pEC50: 3.92
[4]; 2 nM
  aggregation reduction in ATXN3/Q75 expressed neuronal cells: 10%
